Data: paper PMC9021288 (Nature Communications, 2022)

What was measured:
[1] = tested on: P. falciparum NF54-HGL gametocytes; set-up: method as in earlier work; conditions: ref 15 (Schalkwijk et al.); read-out: Gametocyte IC50; cited from earlier work
[2] = tested on: cryopreserved human hepatocytes; experiment: MTT cytotoxicity in induction-study hepatocytes; format: cell-based; conditions: up to 500 µM, 72 h, one donor
human recombinant CYP2B6 = target: T1, human recombinant CYP2B6 (Homo sapiens, UniProt P20813); experiment: CYP reaction phenotyping; format: in vitro ADME
T1 construct: purchased Bactosomes (assay run at Cyprotex)
T1 sequence (P20813 1-491): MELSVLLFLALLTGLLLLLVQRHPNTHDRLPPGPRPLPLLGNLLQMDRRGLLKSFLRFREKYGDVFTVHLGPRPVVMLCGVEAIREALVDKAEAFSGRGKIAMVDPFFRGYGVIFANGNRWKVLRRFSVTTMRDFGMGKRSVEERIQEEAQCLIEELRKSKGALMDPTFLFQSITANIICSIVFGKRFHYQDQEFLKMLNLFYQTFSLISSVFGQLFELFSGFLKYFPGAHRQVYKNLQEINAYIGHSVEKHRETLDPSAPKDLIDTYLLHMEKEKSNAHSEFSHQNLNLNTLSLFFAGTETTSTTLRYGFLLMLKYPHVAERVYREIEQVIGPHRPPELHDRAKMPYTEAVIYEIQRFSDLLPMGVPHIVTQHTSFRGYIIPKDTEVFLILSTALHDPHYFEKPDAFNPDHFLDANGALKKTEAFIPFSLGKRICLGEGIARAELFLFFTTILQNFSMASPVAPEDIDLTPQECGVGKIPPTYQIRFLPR
Description: (§1) In vitro CYP reaction phenotyping was performed at Cyprotex (Alderly Park, United Kingdom). […] The remaining test compound at each time point was analyzed by LC-MS/MS.

human recombinant CYP3A5 = target: T2, human recombinant CYP3A5 (Homo sapiens, UniProt P20815); experiment: CYP reaction phenotyping; format: in vitro ADME; conditions: for Compound remaining (0 min = 100): CYP3A5
T2 construct: purchased Bactosomes (assay run at Cyprotex)
T2 sequence (P20815 whole entry): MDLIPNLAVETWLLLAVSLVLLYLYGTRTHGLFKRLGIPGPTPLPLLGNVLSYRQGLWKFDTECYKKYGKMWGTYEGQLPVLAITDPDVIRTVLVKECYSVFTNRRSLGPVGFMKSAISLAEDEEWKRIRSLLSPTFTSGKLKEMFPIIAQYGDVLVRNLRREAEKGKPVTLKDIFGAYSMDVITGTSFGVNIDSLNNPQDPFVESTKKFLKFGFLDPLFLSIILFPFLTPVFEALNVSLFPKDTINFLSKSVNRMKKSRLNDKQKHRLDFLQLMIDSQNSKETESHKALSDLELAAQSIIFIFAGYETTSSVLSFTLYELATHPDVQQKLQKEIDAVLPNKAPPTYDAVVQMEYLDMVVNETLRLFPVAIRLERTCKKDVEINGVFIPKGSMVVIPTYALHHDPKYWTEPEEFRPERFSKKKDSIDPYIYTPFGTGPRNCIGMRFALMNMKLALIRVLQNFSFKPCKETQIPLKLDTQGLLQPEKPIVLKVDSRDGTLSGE
Description: as §1

human recombinant CYP3A4 = target: T3, human recombinant CYP3A4 (Homo sapiens, UniProt P08684); experiment: CYP reaction phenotyping; format: in vitro ADME; conditions: for Compound remaining (0 min = 100): CYP3A4
T3 construct: purchased Bactosomes (assay run at Cyprotex)
T3 sequence (P08684 whole entry): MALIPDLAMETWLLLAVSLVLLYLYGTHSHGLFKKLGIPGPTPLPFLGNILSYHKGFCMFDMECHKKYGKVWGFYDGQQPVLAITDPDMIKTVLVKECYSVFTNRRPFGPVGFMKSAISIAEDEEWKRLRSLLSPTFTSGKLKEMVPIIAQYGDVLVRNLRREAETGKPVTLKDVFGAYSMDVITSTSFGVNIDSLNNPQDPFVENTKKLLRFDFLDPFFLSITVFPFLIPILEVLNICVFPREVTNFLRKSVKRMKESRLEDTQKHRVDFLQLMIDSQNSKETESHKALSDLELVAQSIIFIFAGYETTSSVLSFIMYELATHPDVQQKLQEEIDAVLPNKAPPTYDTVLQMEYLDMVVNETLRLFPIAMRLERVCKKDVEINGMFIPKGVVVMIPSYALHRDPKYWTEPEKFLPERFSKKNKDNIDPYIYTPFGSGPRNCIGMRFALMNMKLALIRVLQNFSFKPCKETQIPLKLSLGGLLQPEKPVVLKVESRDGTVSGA
Description: as §1

human recombinant CYP2C8 = target: T4, human recombinant CYP2C8 (Homo sapiens, UniProt P10632); experiment: CYP reaction phenotyping; format: in vitro ADME
T4 construct: purchased Bactosomes (assay run at Cyprotex)
T4 sequence (P10632 1-490): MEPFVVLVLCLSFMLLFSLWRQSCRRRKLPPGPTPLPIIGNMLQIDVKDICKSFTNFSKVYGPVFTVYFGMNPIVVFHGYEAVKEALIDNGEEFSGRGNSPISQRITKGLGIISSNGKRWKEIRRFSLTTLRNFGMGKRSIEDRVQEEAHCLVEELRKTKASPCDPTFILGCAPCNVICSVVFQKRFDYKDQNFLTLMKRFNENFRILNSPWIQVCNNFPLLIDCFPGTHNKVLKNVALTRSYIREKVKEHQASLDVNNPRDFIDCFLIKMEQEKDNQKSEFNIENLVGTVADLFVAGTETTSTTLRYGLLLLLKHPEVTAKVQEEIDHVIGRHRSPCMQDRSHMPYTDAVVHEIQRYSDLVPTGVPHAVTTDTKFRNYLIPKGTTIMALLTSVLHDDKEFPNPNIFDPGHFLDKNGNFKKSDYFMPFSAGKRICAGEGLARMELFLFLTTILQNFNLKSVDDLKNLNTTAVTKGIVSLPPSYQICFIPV
Description: as §1

human recombinant CYP2C9 = target: T5, human recombinant CYP2C9 (Homo sapiens, UniProt P11712); experiment: CYP reaction phenotyping; format: in vitro ADME
T5 construct: purchased Bactosomes (assay run at Cyprotex)
T5 sequence (P11712 whole entry): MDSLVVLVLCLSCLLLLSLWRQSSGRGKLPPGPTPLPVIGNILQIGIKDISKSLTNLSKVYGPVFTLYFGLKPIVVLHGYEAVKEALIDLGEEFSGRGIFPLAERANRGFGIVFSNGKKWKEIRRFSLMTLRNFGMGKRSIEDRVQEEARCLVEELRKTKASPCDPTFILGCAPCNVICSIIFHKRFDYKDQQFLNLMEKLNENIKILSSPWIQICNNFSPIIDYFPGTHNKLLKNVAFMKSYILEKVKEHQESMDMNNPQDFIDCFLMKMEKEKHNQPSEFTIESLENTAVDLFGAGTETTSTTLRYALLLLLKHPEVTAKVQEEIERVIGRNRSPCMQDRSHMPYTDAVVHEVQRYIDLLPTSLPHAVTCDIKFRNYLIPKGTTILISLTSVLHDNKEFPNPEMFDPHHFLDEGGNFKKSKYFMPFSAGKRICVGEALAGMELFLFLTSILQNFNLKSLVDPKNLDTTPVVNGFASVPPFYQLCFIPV
Description: as §1

[3] = tested on: P. falciparum NF54 male gametocytes; experiment: Dual gamete formation assay, male; format: cell-based, Plasmodium falciparum
Description: After a 48-h incubation, gamete formation was stimulated by a drop in temperature (from 37 °C to 26 °C), and the addition of xanthurenic acid (2.5 µM). At 20 min after induction, exflagellation was recorded by automated time-lapse microscopy. After data collection, the plate was returned to a 26 °C incubator and incubated for 24 h. Female gamete formation was assessed by live staining with a Cy3-labelled anti-Pfs25 monoclonal antibody (1:2222) and recorded by automated microscopy.

AcAS-cKD P. falciparum = experiment: Drug sensitivity of AcAS conditional knockdown parasites; format: cell-based, Plasmodium falciparum; conditions: […] vs 500 nM aTc
Description: Replication assays were performed using a SYBR Green method as described previously. Briefly, asynchronous parasites were diluted to 0.83% parasitemia, 3% hematocrit in 30 µl medium, and added to 30 µl of diluted compounds in medium (0.1% DMSO final concentration) in black 384-wells plates. After a 72-h incubation, 30 µl of SYBR Green diluted in lysis buffer was added according to the manufacturer’s protocol (Life Technologies). Fluorescence intensity was measured on a BioTek Synergy 2 Plate Reader after 1-h incubation and was normalized to a DMSO control (100% growth) and DHA- or epoxomicin-treatment (no growth). […] Parasite survival was assessed by flow cytometry on an Accuri C6 (BD Biosciences) with BD C6 Plus software using SYBR Green and MitoTracker Deep Red FM (Life Technologies) as nuclear stain and vital dye, respectively, and data were analyzed using FlowJo (10.5.0). […] Luminescence was measured after 72 h using the Renilla-Glo(R) Luciferase Assay System (Promega E2750) and the GlomAX® Discover Multimode Microplate Reader (Promega). The luminescence values were normalized to DMSO vehicle (100% growth) and 200 nM chloroquine-treated (no growth) samples as controls.

[4] = Blood to plasma ratio, rat
[5] = tested on: P. falciparum (NF54-HGL) stage V gametocytes fed to A. stephensi; experiment: Transmission-blocking mosquito feeding assay (oocyst luminescence); format: cell-based, Plasmodium falciparum
Description: The transmission-blocking activity of compounds was determined as described previously. Briefly, NF54-HGL parasites were set up at 1% parasitemia in a semi-automated shaker system at 5% hematocrit. […] Eight days after the feed, luminescence was quantified to determine oocyst intensity.

CC(CNC(=O)C(O)C(C)(C)CO)NC(=O)CCc1ccccc1F (stereo in doubt) [MMV689258]
IC50 [1]: 12 nM

C[C@@H](CNC(=O)[C@H](O)C(C)(C)CO)NC(=O)c1cc(F)c(F)cc1F [MMV693183]
cell viability (MTT) [2]: no change in cell viability | Compound remaining (0 min = 100) (human recombinant CYP2B6; Incubation time (minutes) 0): 100 | Compound remaining (0 min = 100) (human recombinant CYP2B6; Incubation time (minutes) 5): 101 | Compound remaining (0 min = 100) (human recombinant CYP2B6; Incubation time (minutes) 15): 104 | Compound remaining (0 min = 100) (human recombinant CYP2B6; Incubation time (minutes) 30): 97.8 | Compound remaining (0 min = 100) (human recombinant CYP2B6; Incubation time (minutes) 45): 97.9 | role in oxidative metabolism (human recombinant CYP3A5; 1 µM, 45 min): responsible for the oxidative metabolism | Compound remaining (0 min = 100) (human recombinant CYP3A5; Incubation time (minutes) 0): 100 | Compound remaining (0 min = 100) (human recombinant CYP3A5; Incubation time (minutes) 5): 101 | Compound remaining (0 min = 100) (human recombinant CYP3A5; Incubation time (minutes) 15): 92.7 | Compound remaining (0 min = 100) (human recombinant CYP3A5; Incubation time (minutes) 30): 91.6 | Compound remaining (0 min = 100) (human recombinant CYP3A5; Incubation time (minutes) 45): 93.9 | role in oxidative metabolism (human recombinant CYP3A4; 1 µM, 45 min): responsible for the oxidative metabolism | Compound remaining (0 min = 100) (human recombinant CYP3A4; Incubation time (minutes) 0): 100 | Compound remaining (0 min = 100) (human recombinant CYP3A4; Incubation time (minutes) 5): 101 | Compound remaining (0 min = 100) (human recombinant CYP3A4; Incubation time (minutes) 15): 94.1 | Compound remaining (0 min = 100) (human recombinant CYP3A4; Incubation time (minutes) 30): 90.1 | Compound remaining (0 min = 100) (human recombinant CYP3A4; Incubation time (minutes) 45): 91.5 | Compound remaining (0 min = 100) (human recombinant CYP2C8; Incubation time (minutes) 0): 100 | Compound remaining (0 min = 100) (human recombinant CYP2C8; Incubation time (minutes) 5): 99.9 | Compound remaining (0 min = 100) (human recombinant CYP2C8; Incubation time (minutes) 15): 100 | Compound remaining (0 min = 100) (human recombinant CYP2C8; Incubation time (minutes) 30): 101 | Compound remaining (0 min = 100) (human recombinant CYP2C8; Incubation time (minutes) 45): 101 | Compound remaining (0 min = 100) (human recombinant CYP2C9; Incubation time (minutes) 0): 100 | Compound remaining (0 min = 100) (human recombinant CYP2C9; Incubation time (minutes) 5): 102 | Compound remaining (0 min = 100) (human recombinant CYP2C9; Incubation time (minutes) 15): 100 | Compound remaining (0 min = 100) (human recombinant CYP2C9; Incubation time (minutes) 30): 103 | Compound remaining (0 min = 100) (human recombinant CYP2C9; Incubation time (minutes) 45): 111 | IC50 [3]: 1000 nM | IC50 decrease upon knockdown (low aTc) (AcAS-cKD P. falciparum): 5 fold | B:P [4]: 0.91 | midgut infection ([5]; 1 µM directly at the time of the mosquito feed): did not inhibit midgut infection | IC50 ([5]; gametocytes treated 24 h before feeding to A. stephensi, read-out: IC50 oocyst formation): 38 nM
